Data from patent US12281122B1, “PI3K inhibitors” (Cogent Biosciences, Inc., priority 2023, dated 2025).
Read-outs that look alike come from different tables or passages of the source.

Columns and labels:
Mouse PK, IV and PO = conditions: in vivo; for clearance: read-out: PK-Mouse: IV Cl; for bioavailability: read-out: PK-Mouse: PO F (%)
[1] = system: T47D (PI3Kα-H1047R) cell line; test: HTRF phospho-AKT(S473) cell assay in T47D cells; format: cell-based, human; conditions: Homo sapiens; T47D (PI3Kα-H1047R) cells, HTRF phospho-AKT(S473), 2 hours compound incubation
Outline: (§1)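 HTRF read-out of phospho-AKT(S473) in lysates gave IC50 values after 2 h compound exposure at 37° C. Dose series was 12 points at 1:3, topping at 5 μM for T47D and 10 μM for SKBR3. Only SKBR3 received 70 ng/ml PDGF-BB during the last 15 minutes.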

PI3Kα = PI3Kα (Homo sapiens, UniProt P42336); test: PI3Kα enzyme assay (Transcreener ADP2 TR-FRET Red Assay); format: biochemical; conditions: purified recombinant full-length protein; 2 hours pre-incubation with compound; read-out: PI3Kα WT IC50
Sequence of PI3Kα (P42336 whole entry): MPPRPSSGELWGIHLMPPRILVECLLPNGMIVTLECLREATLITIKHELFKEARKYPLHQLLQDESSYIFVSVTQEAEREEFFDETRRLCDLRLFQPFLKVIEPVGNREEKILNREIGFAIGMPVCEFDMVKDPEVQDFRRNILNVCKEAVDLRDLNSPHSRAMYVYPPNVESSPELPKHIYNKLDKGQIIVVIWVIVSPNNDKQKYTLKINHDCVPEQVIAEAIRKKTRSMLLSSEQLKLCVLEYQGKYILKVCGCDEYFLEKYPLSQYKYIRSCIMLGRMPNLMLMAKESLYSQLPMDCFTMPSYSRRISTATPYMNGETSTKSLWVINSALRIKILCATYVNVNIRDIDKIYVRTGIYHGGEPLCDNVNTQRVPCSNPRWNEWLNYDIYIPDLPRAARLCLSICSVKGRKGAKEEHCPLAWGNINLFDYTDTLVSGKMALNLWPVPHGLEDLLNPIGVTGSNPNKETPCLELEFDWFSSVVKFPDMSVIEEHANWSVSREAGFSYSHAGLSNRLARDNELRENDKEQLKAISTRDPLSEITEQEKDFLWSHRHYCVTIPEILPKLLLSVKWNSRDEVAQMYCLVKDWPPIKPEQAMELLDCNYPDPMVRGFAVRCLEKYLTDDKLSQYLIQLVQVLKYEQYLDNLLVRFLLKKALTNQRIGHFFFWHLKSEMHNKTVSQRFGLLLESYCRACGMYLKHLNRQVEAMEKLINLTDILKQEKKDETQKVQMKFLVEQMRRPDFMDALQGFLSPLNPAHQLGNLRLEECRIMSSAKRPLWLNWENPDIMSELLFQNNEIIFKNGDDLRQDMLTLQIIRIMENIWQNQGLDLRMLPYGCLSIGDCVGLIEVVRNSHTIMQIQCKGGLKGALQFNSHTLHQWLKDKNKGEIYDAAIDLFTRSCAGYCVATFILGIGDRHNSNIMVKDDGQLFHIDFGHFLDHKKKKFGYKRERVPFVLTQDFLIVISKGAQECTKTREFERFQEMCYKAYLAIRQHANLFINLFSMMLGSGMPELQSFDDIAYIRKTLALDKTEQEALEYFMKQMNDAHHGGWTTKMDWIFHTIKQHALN
Sequence of PI3Kα (P27986 2-724 partner): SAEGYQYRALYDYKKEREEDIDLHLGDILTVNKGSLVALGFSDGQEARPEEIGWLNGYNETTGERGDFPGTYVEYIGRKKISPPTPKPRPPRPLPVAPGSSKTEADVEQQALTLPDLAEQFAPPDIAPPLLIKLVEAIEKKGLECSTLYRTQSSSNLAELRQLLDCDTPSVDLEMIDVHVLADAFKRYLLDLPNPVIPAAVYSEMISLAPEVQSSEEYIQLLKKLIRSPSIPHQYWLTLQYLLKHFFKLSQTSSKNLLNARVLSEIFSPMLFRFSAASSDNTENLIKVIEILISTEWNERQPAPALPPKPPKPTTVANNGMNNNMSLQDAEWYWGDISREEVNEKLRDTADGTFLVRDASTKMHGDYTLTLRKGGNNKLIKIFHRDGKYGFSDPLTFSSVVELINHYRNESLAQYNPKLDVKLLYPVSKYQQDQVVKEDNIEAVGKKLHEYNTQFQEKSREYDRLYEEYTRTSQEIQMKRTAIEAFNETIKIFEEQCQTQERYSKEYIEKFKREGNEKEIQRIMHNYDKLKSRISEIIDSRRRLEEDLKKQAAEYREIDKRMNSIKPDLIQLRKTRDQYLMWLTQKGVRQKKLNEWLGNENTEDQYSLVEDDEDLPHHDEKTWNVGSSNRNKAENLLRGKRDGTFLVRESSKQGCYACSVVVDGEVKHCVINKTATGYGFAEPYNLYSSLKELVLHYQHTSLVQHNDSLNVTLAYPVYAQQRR
Outline: (§2)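 Purified recombinant full-length enzymes pre-incubated 2 h at room temperature with compounds (11-point 1:3 dilutions, typically 50,000–0.85 nM), then started with ATP/PI(4,5)P2 diC8 and run 60 min at room temperature in 40 mM HEPES pH 7.5, 20 mM NaCl, 25 mM MgCl2, 0.01% Triton X-100. ADP detected by TR-FRET 665/615 ratio; IC50 from four-parameter fit of percent of control.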

[2] = system: SKBR3 (PI3Kα-Wild Type) cell line; test: HTRF phospho-AKT(S473) cell assay in SKBR3 cells; format: cell-based, human; conditions: Homo sapiens, SK-BR-3; SKBR3 (PI3Kα-Wild Type) cells, HTRF phospho-AKT(S473), 2 hours compound incubation, PDGF-BB stimulated
Outline: as §1

PI3Kα H1047R = PI3Kα H1047R (Homo sapiens, UniProt P42336, H1047R); test: PI3Kα H1047R enzyme assay (Transcreener ADP2 TR-FRET Red Assay); format: biochemical; conditions: purified recombinant full-length protein; 2 hours pre-incubation with compound
Sequence of PI3Kα H1047R (P42336 whole entry H1047R): as the sequence (P42336 whole entry) above, with H1047R counted along it
Sequence of PI3Kα H1047R (P27986 2-724 partner): as the sequence (P27986 2-724 partner) above
Outline: as §2

[3] = IV dose 3 mg/kg, read-out: PK-Mouse: IV-AUCinf
[4] = PO dose 30 mg/kg, 20% Captisol (aq), fed
[5] = PO dose 30 mg/kg, 20% Captisol (aq), fed, read-out: PK-Mouse: PO AUCinf

Structure (SMILES)	clearance (Mouse PK, IV and PO; IV dose 3 mg/kg) [mL/min/kg]	AUC(0-inf) (Mouse PK, IV and PO; [3]) [ng·h/mL]	Cmax (Mouse PK, IV and PO; [4]) [ng/mL]	AUC(0-inf) (Mouse PK, IV and PO; [5]) [ng·h/mL]	bioavailability (Mouse PK, IV and PO; [4]) [%]	IC50 [1] [nM]	IC50 (PI3Kα) [nM]	IC50 [2] [nM]	IC50 (PI3Kα H1047R) [nM]
Cc1cc([C@@H](C)Nc2ccc(Cl)nc2C(=O)O)c2nc(N3Cc4ccc(F)cc4C3)n(C)c(=O)c2c1 [Compound 1 acid derivative, (R)-6-chloro-3-((1-(2-(5-fluoroisoindolin-2-yl)-3,6-dimethyl-4-oxo-3,4-dihydroquinazolin-8-yl)ethyl)amino)picolinic acid, reference compound]	24.3	2070	2490	8850	43	–	–	–	–
Cc1cc([C@@H](C)Nc2ccc(Cl)nc2C(=O)NS(C)(=O)=O)c2nc(N3Cc4ccc(F)cc4C3)n(C)c(=O)c2c1 [Compound 1, (R)-6-chloro-3-((1-(2-(5-fluoroisoindolin-2-yl)-3,6-dimethyl-4-oxo-3,4-dihydroquinazolin-8-yl)ethyl)amino)-N-(methylsulfonyl)picolinamide]	0.74	67500	35500	548000	81	< 250	≥ 1000	1000 to 5000	500 to 1000
COc1nc(Cl)ccc1N[C@H](C)c1cc(C)cc2c(=O)n(C)c(N3Cc4ccc(F)cc4C3)nc12 [Compound 96, (R)-8-(1-((6-chloro-2-methoxypyridin-3-yl)amino)ethyl)-2-(5-fluoroisoindolin-2-yl)-3,6-dimethylquinazolin-4(3H)-one]	–	–	–	–	–	1000 to 5000	≥ 1000	≥ 5000	≥ 1000
Cc1cc([C@@H](C)Nc2ccc(C)[nH]c2=O)c2nc(N3Cc4ccc(F)cc4C3)n(C)c(=O)c2c1 [Compound 97, (R)-2-(5-fluoroisoindolin-2-yl)-3,6-dimethyl-8-(1-((6-methyl-2-oxo-1,2-dihydropyridin-3-yl)amino)ethyl)quinazolin-4(3H)-one]	–	–	–	–	–	500 to 1000	≥ 1000	≥ 5000	≥ 1000
C[C@@H](Nc1ccc[nH]c1=O)c1cc(F)cc2c(=O)n(C)c(N3Cc4cnn(C)c4C3)nc12 [Compound 98, (R)-6-fluoro-3-methyl-2-(1-methyl-4,6-dihydropyrrolo[3,4-c]pyrazol-5(1H)-yl)-8-(1-((2-oxo-1,2-dihydropyridin-3-yl)amino)ethyl)quinazolin-4(3H)-one]	–	–	–	–	–	1000 to 5000	≥ 1000	≥ 5000	≥ 1000
C[C@@H](Nc1ccc(Cl)[nH]c1=O)c1cc(F)cc2c(=O)n(C)c(N3Cc4ccc(F)cc4C3)nc12 [Compound 99, (R)-8-(1-((6-chloro-2-oxo-1,2-dihydropyridin-3-yl)amino)ethyl)-6-fluoro-2-(5-fluoroisoindolin-2-yl)-3-methylquinazolin-4(3H)-one]	–	–	–	–	–	500 to 1000	≥ 1000	≥ 5000	100 to 250
C[C@@H](Nc1ccc(Cl)[nH]c1=O)c1cc(F)cc2c(=O)n(C)c(N3Cc4cnn(C)c4C3)nc12 [Compound 100, (R)-8-(1-((6-chloro-2-oxo-1,2-dihydropyridin-3-yl)amino)ethyl)-6-fluoro-3-methyl-2-(1-methyl-4,6-dihydropyrrolo[3,4-c]pyrazol-5(1H)-yl)quinazolin-4(3H)-one]	–	–	–	–	–	< 250	≥ 1000	≥ 5000	< 100
C[C@@H](Nc1ccc(Cl)[nH]c1=O)c1cc(F)cc2c(=O)n(C)c(N3CCOCC3)nc12 [Compound 101, (R)-8-(1-((6-chloro-2-oxo-1,2-dihydropyridin-3-yl)amino)ethyl)-6-fluoro-3-methyl-2-morpholinoquinazolin-4(3H)-one]	–	–	–	–	–	1000 to 5000	≥ 1000	≥ 5000	100 to 250
